Measurements: US10538554B2, “Peptides and uses therefor as antiviral agents” (priority 2015, dated 2020)
pIC50: −log10 of the molar value. Where two headings read alike, the source gives them in different places. Bridge positions count the residues as written; N and C are the ends. Square brackets hold non-standard residues; d marks the D form. Peptide text beside a SMILES is read from it.

Experiments:
H9N2 A/Iran/16/2000 = settings: 48 h
[1] = system: avian influenza A virus H9N2; settings: cited from earlier work
H1N1 A/PR/8/1934 [2] = assay: microbe, parasite or virus in culture; settings: Influenza A virus, MDCK, read-out: IC50 PR8
H1N1 A/NY/18/2009 = settings: A/NY/18/2009, 48 h; for % Inhibition Pdm 2009: 10 μM
H3N2 A/HK/8/1968 = settings: A/HK/8/1968, 48 h
[3] = system: H5N1 A/Kampung pasir/5744/2004; settings: A/Kampung pasir/5744/2004, 48 h
H1N1 A/PR/8/1934 [4] = settings: A/PR/8/1934, 48 h; for % Inhibition PR/8: 10 μM; for % Inhibition: 1 μM
H3N8 A/Miami/2/63 = settings: A/Miami/2/63, 48 h
[5] = system: H1N1 A1/Malaysia/302/1954; settings: A1/Malaysia/302/1954, 48 h
[6] = system: Influenza B/MALAYSIA/2506/04

Compound	pIC50 (H9N2 A/Iran/16/2000)	pIC50 (H1N1 A/NY/18/2009)	% Inhibition Pdm 2009 (H1N1 A/NY/18/2009)	pIC50 (H3N2 A/HK/8/1968)	% inhibition H3N2 (H3N2 A/HK/8/1968; 10 μM)	% inhibition H9N2 (H9N2 A/Iran/16/2000; 10 μM)	pIC50 (H1N1 A/PR/8/1934 [4])	% Inhibition PR/8 (H1N1 A/PR/8/1934 [4])	pIC50 (H3N8 A/Miami/2/63)	% inhibition H3N8 (H3N8 A/Miami/2/63; 10 μM)	pIC50 [5]	% inhibition H1N1 ([5]; 10 μM)	other results
C[C@@H](O)[C@@H]1NC(=O)[C@H](CCCCN)NC(=O)[C@H](CO)NC(=O)[C@H](CCCNC(=N)N)NC(=O)[C@H](Cc2ccccc2)NC(=O)[C@H](CC(=O)O)NC(=O)[C@H](CC(N)=O)NC(=O)[C@@H](N)CSSC[C@@H](C(=O)O)NC1=O [C-P1, H-CNDFRSKTC-OH, reference compound] (H-CNDFRSKTC-OH; disulfide 1-9)	< 3.49												inhibition of avian influenza A virus H9N2 replication [1]: modest efficacy
CCC(CC)O[C@@H]1C=C(C(=O)O)C[C@H](N)[C@H]1NC(C)=O [Oseltamivir acid]													pIC50 (H1N1 A/PR/8/1934 [2]): 6.85
CC[C@@H](C)[C@H]1NC(=O)[C@@H](Cc2ccccc2)NC(=O)[C@@H](CCCNC(=N)N)NC(=O)[C@@H](Cc2ccccc2)NC(=O)[C@@H](Cc2c[nH]c3ccccc23)NC(=O)[C@@H]([C@H](C)O)NC(=O)[C@H](NC(=O)[C@H](CCCCN)NC(=O)[C@H](CCCCN)NC(=O)[C@H](CCCNC(=N)N)NC(=O)[C@@H](N)CCCNC(=N)N)CSSC[C@H](C(=O)O)NC(=O)[C@@H](CC(N)=O)NC1=O [PSP III B5, H-RRKKctwfrfinc-OH] (H-RRKK[dC][dT][dW][dF][dR][dF][dI][dN][dC]-OH; disulfide 5-13)	6.05	5.93	73%	5.85	87%	76%	5.92	88%	6.82	92%	5.80	80%	% inhibition H3N2 (H3N2 A/HK/8/1968; 50 μM): 100%; % inhibition H9N2 (H9N2 A/Iran/16/2000; 50 μM): 90%; pIC50 [3]: 6.66; % inhibition H3N8 (H3N8 A/Miami/2/63; 50 μM): 100%; % inhibition H1N1 ([5]; 50 μM): 96%
CC[C@@H](C)[C@H]1NC(=O)[C@@H](Cc2ccccc2)NC(=O)[C@@H](Cc2ccccc2)NC(=O)[C@@H](Cc2ccccc2)NC(=O)[C@@H](Cc2c[nH]c3ccccc23)NC(=O)[C@@H]([C@H](C)O)NC(=O)[C@H](NC(=O)[C@H](CCCCN)NC(=O)[C@H](CCCCN)NC(=O)[C@H](CCCNC(=N)N)NC(=O)[C@@H](N)CCCNC(=N)N)CSSC[C@H](C(=O)O)NC(=O)[C@@H](CC(N)=O)NC1=O [PSP IV A5, H-RRKKctwfffinc-OH] (H-RRKK[dC][dT][dW][dF][dF][dF][dI][dN][dC]-OH; disulfide 5-13)	6.12	6.00	98%	6.52	99%	93%	6.40	99%	6.52	98%	6.52	99%	pIC50 [3]: 6.26
CC[C@@H](C)[C@H]1NC(=O)[C@@H](Cc2ccccc2)NC(=O)[C@@H]([C@H](C)O)NC(=O)[C@@H](Cc2ccccc2)NC(=O)[C@@H](Cc2c[nH]c3ccccc23)NC(=O)[C@@H]([C@H](C)O)NC(=O)[C@H](NC(=O)[C@H](CCCCN)NC(=O)[C@H](CCCCN)NC(=O)[C@H](CCCNC(=N)N)NC(=O)[C@@H](N)CCCNC(=N)N)CSSC[C@H](C(=O)O)NC(=O)[C@@H](CC(N)=O)NC1=O [PSP IV A17, H-RRKKctwftfinc-OH] (H-RRKK[dC][dT][dW][dF][dT][dF][dI][dN][dC]-OH; disulfide 5-13)		7.48	97%	7.25	97%	92%	6.59	97%		97%	7.29	91%	pIC50 [6]: 6.00; % Inhibition (H1N1 A/PR/8/1934 [4]): <20%
CC[C@@H](C)[C@H]1NC(=O)[C@@H](Cc2ccccc2)NC(=O)[C@@H](Cc2c[nH]c3ccccc23)NC(=O)[C@@H](Cc2ccccc2)NC(=O)[C@@H](Cc2c[nH]c3ccccc23)NC(=O)[C@@H]([C@H](C)O)NC(=O)[C@H](NC(=O)[C@H](CCCCN)NC(=O)[C@H](CCCCN)NC(=O)[C@H](CCCNC(=N)N)NC(=O)[C@@H](N)CCCNC(=N)N)CSSC[C@H](C(=O)O)NC(=O)[C@@H](CC(N)=O)NC1=O [PSP IV A19, H-RRKKctwfwfinc-OH] (H-RRKK[dC][dT][dW][dF][dW][dF][dI][dN][dC]-OH; disulfide 5-13)			94%		94%	95%		90%		94%		87%	
CC[C@@H](C)[C@H]1NC(=O)[C@@H](Cc2ccccc2)NC(=O)[C@@H](Cc2ccc(O)cc2)NC(=O)[C@@H](Cc2ccccc2)NC(=O)[C@@H](Cc2c[nH]c3ccccc23)NC(=O)[C@@H]([C@H](C)O)NC(=O)[C@H](NC(=O)[C@H](CCCCN)NC(=O)[C@H](CCCCN)NC(=O)[C@H](CCCNC(=N)N)NC(=O)[C@@H](N)CCCNC(=N)N)CSSC[C@H](C(=O)O)NC(=O)[C@@H](CC(N)=O)NC1=O [PSP IV A20, H-RRKKctwfyfinc-OH] (H-RRKK[dC][dT][dW][dF][dY][dF][dI][dN][dC]-OH; disulfide 5-13)			79%		89%	85%		85%		89%		79%	
CC[C@@H](C)[C@H]1NC(=O)[C@@H](Cc2ccccc2)NC(=O)[C@@H]([C@H](C)O)NC(=O)[C@@H](Cc2ccccc2)NC(=O)[C@@H](Cc2c[nH]c3ccccc23)NC(=O)[C@@H](Cc2c[nH]c3ccccc23)NC(=O)[C@H](NC(=O)[C@H](CCCCN)NC(=O)[C@H](CCCCN)NC(=O)[C@H](CCCNC(=N)N)NC(=O)[C@@H](N)CCCNC(=N)N)CSSC[C@H](C(=O)O)NC(=O)[C@@H](C)NC1=O [PSP VI A1, H-RRKKcwwftfiac-OH] (H-RRKK[dC][dW][dW][dF][dT][dF][dI][dA][dC]-OH; disulfide 5-13)	7.98	9.89		8.72			8.40		8.70		8.30		pIC50 [6]: 8.92; % Inhibition (H1N1 A/PR/8/1934 [4]): 98.5%
